The text below walks through data of US6355633B1, “Aryl sulfonic acids and derivatives as FSH antagonists” (American Home Products Corporation, priority 1999, dated 2002).

pIC50: −log10 of the molar value.

The test concerns the target T1, FSH receptor (Homo sapiens, UniProt P23945).
T1 sequence (P23945 18-695): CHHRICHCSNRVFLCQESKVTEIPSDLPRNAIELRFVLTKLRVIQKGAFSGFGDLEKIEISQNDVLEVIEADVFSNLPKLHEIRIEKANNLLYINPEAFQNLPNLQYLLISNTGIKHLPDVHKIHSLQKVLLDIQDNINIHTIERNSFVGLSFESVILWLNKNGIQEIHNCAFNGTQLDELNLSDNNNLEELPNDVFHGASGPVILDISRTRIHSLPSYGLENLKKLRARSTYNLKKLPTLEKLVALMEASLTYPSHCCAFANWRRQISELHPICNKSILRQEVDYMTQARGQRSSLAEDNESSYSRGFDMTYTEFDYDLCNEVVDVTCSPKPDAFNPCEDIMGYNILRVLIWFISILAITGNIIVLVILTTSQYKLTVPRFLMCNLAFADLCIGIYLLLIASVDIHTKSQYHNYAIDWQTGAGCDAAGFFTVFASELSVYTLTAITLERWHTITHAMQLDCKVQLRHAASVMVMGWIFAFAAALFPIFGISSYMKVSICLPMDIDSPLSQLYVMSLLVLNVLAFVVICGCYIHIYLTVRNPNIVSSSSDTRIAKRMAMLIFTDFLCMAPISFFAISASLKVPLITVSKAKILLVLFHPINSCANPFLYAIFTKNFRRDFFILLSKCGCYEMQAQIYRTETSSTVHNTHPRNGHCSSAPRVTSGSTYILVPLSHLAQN
Kind of test: FSH Receptor Radioligand Membrane Binding Standard Pharmacological Test Procedure. Details: expressed in transfected cells. The settings on record: [125I]FSH binding to membranes of CHO cells stably transfected with the human FSH receptor. A digest of the protocol:
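Membranes from CHO cells stably expressing human FSH receptor; compounds pre-incubated 15 min at room temperature, then [125I]FSH added (diluted to 200 pM before addition) for 2 h at room temperature in pH 7.2 Tris buffer with protease inhibitors and BSA. Bound radioactivity after filtration counted by gamma counter; non-specific binding defined with unlabelled human FSH.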
As a reminder, the pIC50 is −log10 of the IC50, conventionally taken in molar units. Take “2,2′-[(E)-1,2-Ethenediyl]bis[5-[[4-(methylthio)-3-(4-morpholinylsulfonyl)benzoyl]amino]benzenesulfonic Acid] [Example 30b]”: the negative-log IC50 (pIC50) is 5.92.

On to `COCCOCCOc1ccc(C(=O)Nc2ccc(/C=C/c3ccc(NC(=O)c4ccc(OCCOCCOC)c(S(=O)(=O)N5CCOCC5)c4)cc3S(=O)(=O)O)c(S(=O)(=O)O)c2)cc1S(=O)(=O)N1CCOCC1` [Example 30a, 2,2′-[(E)-1,2-Ethenediyl]bis[5-[[4-[2-(2-methoxyethoxy)ethoxy]-3-(4-morpholinylsulfonyl)benzoyl]amino]benzenesulfonic Acid]], for which the pIC50 was 5.80. With `CS(=O)(=O)c1ccc(C(=O)Nc2ccc(/C=C/c3ccc(NC(=O)c4ccc(S(C)(=O)=O)c([N+](=O)[O-])c4)cc3S(=O)(=O)O)c(S(=O)(=O)O)c2)cc1[N+](=O)[O-]` [Example 30c, 2.2′-[(E)-1,2-Ethenediyl]bis[5-[[(4-methylsulfonyl)-3-(nitro)-benzoyl]amino]benzenesulfonic Acid]] the figure was 5.80; with `CS(=O)(=O)c1ccc(C(=O)Nc2ccc(/C=C/c3ccc(NC(=O)c4ccc(S(C)(=O)=O)c(S(=O)(=O)N5CCOCC5)c4)cc3S(=O)(=O)O)c(S(=O)(=O)O)c2)cc1S(=O)(=O)N1CCOCC1` [Example 30d, 2,2′-[(E)-1,2-Ethenediyl]bis[5-[[4-(methylsulfonyl)-3-(4-morpholinylsulfonyl)benzoyl]amino]benzenesulfonic Acid]], 5.82; with `CSc1ccc(C(=O)Nc2ccc(/C=C/c3ccc(NC(=O)c4ccc(S(C)(=O)=O)c([N+](=O)[O-])c4)cc3S(=O)(=O)O)c(S(=O)(=O)O)c2)cc1S(=O)(=O)N1CCOCC1` [Example 30e], 5.60.

As for `COCCNS(=O)(=O)c1cc(C(=O)Nc2ccc(/C=C/c3ccc(NC(=O)c4ccc(S(C)(=O)=O)c([N+](=O)[O-])c4)cc3S(=O)(=O)O)c(S(=O)(=O)O)c2)ccc1OC` [Example 30f], the pIC50 is 5.72. `COc1ccc(C(=O)Nc2ccc(/C=C/c3ccc(NC(=O)c4ccc(S(C)(=O)=O)cc4)cc3S(=O)(=O)O)c(S(=O)(=O)O)c2)cc1S(=O)(=O)N1CCOCC1` [Example 30g] showed a negative-log IC50 (pIC50) of 5.80.

`COc1ccc(C(=O)Nc2ccc(/C=C/c3ccc(NC(=O)c4ccc(OC)c(S(=O)(=O)N5CCS(=O)(=O)CC5)c4)cc3S(=O)(=O)O)c(S(=O)(=O)O)c2)cc1S(=O)(=O)N1CCS(=O)(=O)CC1` [Example 30k, 2,2′-[(E)-1,2-Ethenediyl]bis[5-[[3-[(1,1-dioxido-4-thiomorpholinyl)sulfonyl]-4-methoxybenzoyl]amino]benzenesulfonic Acid]] gave a pIC50 of 5.70.

Regarding `COCCNS(=O)(=O)c1cc(C(=O)Nc2ccc(/C=C/c3ccc(NC(=O)c4ccc(OC)c(S(=O)(=O)NCCOC)c4)cc3S(=O)(=O)O)c(S(=O)(=O)O)c2)ccc1OC` [Example 30m, 2,2′-[(E)-1,2-Ethenediyl]bis[5-[[4-methoxy-3-[[(2-methoxyethyl)amino]sulfonyl]benzoyl]amino]benzenesulfonic Acid]], the pIC50 is 5.66. Take `CS(=O)(=O)c1ccc(C(=O)Nc2ccc(/C=C/c3ccc(NC(=O)c4ccc(S(C)(=O)=O)cc4)cc3S(=O)(=O)O)c(S(=O)(=O)O)c2)cc1` [Example 30q, 2,2′-[(E)-1,2-Ethenediyl]bis[5-[[4-(methylsulfonyl)benzoyl]amino]benzenesulfonic Acid]]: the negative logarithm of the IC50 (pIC50) is 5.40.

Consider `O=C(Nc1ccc(/C=C/c2ccc(NC(=O)c3ccc(OC4CCOCC4)c(S(=O)(=O)N4CCOCC4)c3)cc2S(=O)(=O)O)c(S(=O)(=O)O)c1)c1ccc(OC2CCOCC2)c(S(=O)(=O)N2CCOCC2)c1` [Example 30r, 2,2′-[(E)-1,2-Ethenediyl]bis[5-[[3-(4-morpholinylsulfonyl)-4-[(tetrahydro-2H-pyran-4-yl)oxy]benzoyl]amino]benzenesulfonic Acid]], for which the negative-log IC50 (pIC50) was 5.96. In the case of `COc1ccc(C(=O)Nc2ccc(/C=C/c3ccc(NC(=O)c4ccc(OC)c(S(=O)(=O)N5CCOCC5)c4)cc3S(=O)(=O)O)c(S(=O)(=O)O)c2)cc1S(=O)(=O)N1CCOCC1` [Example 30s, 2,2′-[(E)-1,2-Ethenediyl]bis[5-[[4-methoxy-3-(4-morpholinylsulfonyl)benzoyl]amino]benzenesulfonic Acid]], the pIC50 was 5.52. The molecule `COCCOc1ccc(C(=O)Nc2ccc(/C=C/c3ccc(NC(=O)c4ccc(OCCOC)c(S(=O)(=O)N5CCOCC5)c4)cc3S(=O)(=O)O)c(S(=O)(=O)O)c2)cc1S(=O)(=O)N1CCOCC1` [Example 30t, 2,2′-[(E)-1,2-Ethenediyl]bis[5-[[4-(2-methoxyethoxy)-3-(4-morpholinylsulfony)benzoyl]amino]benzenesulfonic Acid]] showed a pIC50 of 5.89.

In turn, `CCS(=O)(=O)c1ccc(C(=O)Nc2ccc(/C=C/c3ccc(NC(=O)c4ccc(S(=O)(=O)CC)cc4)cc3S(=O)(=O)O)c(S(=O)(=O)O)c2)cc1` [Example 32f, 2,2′-[(E)-1,2-Ethenediyl]bis[5-[[4-(ethylsulfonyl)benzoyl]amino]benzenesulfonic Acid]] had a pIC50 of 5.54. For `COc1ccc(C(=O)Nc2ccc(/C=C/c3ccc(NC(=O)c4ccc(OC)c(S(=O)(=O)N5CCSCC5)c4)cc3S(=O)(=O)O)c(S(=O)(=O)O)c2)cc1S(=O)(=O)N1CCSCC1` [Example 33d, 2,2′-[(E)-1,2-Ethenediyl]bis[5-[[4-methoxy-3-(4-thiomorpholinylsulfonyl)benzoyl]amino]benzenesulfonic Acid]] the value was 5.28; for `COc1ccc(C(=O)Nc2ccc(/C=C/c3ccc(NC(=O)c4ccc(OC)c(S(=O)(=O)N5CCCC5)c4)cc3S(=O)(=O)O)c(S(=O)(=O)O)c2)cc1S(=O)(=O)N1CCCC1` [Example 33e, 2,2′-[(E)-1,2-Ethenediyl]bis[5-[[4-methoxy-3-(1-pyrrolidinylsulfonyl)benzoyl]amino]benzenesulfonic Acid]], 5.37. With `COc1ccc(C(=O)Nc2ccc(/C=C/c3ccc(NC(=O)c4ccc(OC)c(S(=O)(=O)N5CCN(C(C)=O)CC5)c4)cc3S(=O)(=O)O)c(S(=O)(=O)O)c2)cc1S(=O)(=O)N1CCN(C(C)=O)CC1` [Example 34a, 2,2′-[(E)-1,2-Ethenediyl]bis[5-[[3-[(4-acetyl-1-piperazinyl)sulfonyl]-4-methoxybenzoyl]amino]benzenesulfonic Acid]] the figure was 5.42. For `COc1ccc(C(=O)Nc2ccc(/C=C/c3ccc(NC(=O)c4ccc(OC)c(S(=O)(=O)N5CCN(C=O)CC5)c4)cc3S(=O)(=O)O)c(S(=O)(=O)O)c2)cc1S(=O)(=O)N1CCN(C=O)CC1` [Example 34b, 2,2′-[(E)-1,2-Ethenediyl]bis[5-[[3-[(4-formyl-1-piperazinyl)sulfonyl]-4-methoxybenzoyl]amino]benzenesulfonic Acid]] the value was 5.80; for `COc1ccc(C(=O)Nc2ccc(CCc3ccc(NC(=O)c4ccc(S(C)(=O)=O)cc4)cc3S(=O)(=O)O)c(S(=O)(=O)O)c2)cc1S(=O)(=O)N1CCOCC1` [Example 43a, 5-[[4-Methoxy-3-(4-morpholinylsulfonyl)benzoyl]amino]-2-[2-[4-[[4-(methylsulfonyl)benzoyl]amino]-2-sulfophenyl]ethyl]benzenesulfonic Acid], 5.70.
